We go through three molecules from patent US5932559A, “Treatment of hyperandrogenic conditions” (Merck & Co., Inc., priority 1996, dated 1999).

The test system of test [1] is human skin (type 1) isozyme. The settings on record: cited from earlier work.
In test [2] the test system is dihydrotestosterone. The settings on record: after withdrawal of finasteride; cited from earlier work.
Test [3] deals with human prostate (type 2) isozyme. To be noted: cited from earlier work.
Test [4] deals with T1, type 2 5α-reductase (Homo sapiens, UniProt P31213).
T1 construct: made in house
T1 sequence (P31213 1-254): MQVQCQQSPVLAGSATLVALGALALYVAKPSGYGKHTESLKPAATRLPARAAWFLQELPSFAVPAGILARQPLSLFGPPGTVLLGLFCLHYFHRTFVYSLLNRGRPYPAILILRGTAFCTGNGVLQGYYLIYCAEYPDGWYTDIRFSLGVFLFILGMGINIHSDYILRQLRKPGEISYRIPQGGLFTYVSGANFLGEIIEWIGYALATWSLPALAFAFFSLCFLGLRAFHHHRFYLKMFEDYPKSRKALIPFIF
Kind of test: Progress curves of DHT formation, time course of inhibition of baculovirus expressed type 2 5α-reductase. The settings on record: 20 nM inhibitor, pH 7.2, 37° C. The format is biochemical. The protocol: Ethanol is included at 1% final concentration as the vehicle for introduction of inhibitors. The rate of production of [^3 H]dihydrotestosterone is approximately constant for up to 2 hours or 10% consumption of substrate. A unit of enzyme activity was defined as 1 pmol product/min, and is equal to 444 fmol enzyme under these conditions.
After quenching the reactions with an equal volume, or more, of water containing 1% trifluoroacetic acid, the [^3 H]dihydrotestosterone is isolated by direct injection onto a reverse phase C-18 column (Vydac 4.6×250 mm, 300 Å, 5 micron), which is run in an isocratic system of 40% water (containing 0.1% trifluoroacetic acid) and 60% methanol at 1 mL/min. […] The effluent containing the [^3 H]dihydrotestosterone peak (6 mL) is collected in a liquid scintillation vial and counted with AQUASOL 2 (14 mL, New England Nuclear) with an efficiency of 0.309. […]
The native human enzyme was from prostate (type 2) or scalp (type 1) tissue, and the recombinant human enzymes were produced by the baculovirus expression system of Anderson, et al. (Chan, H K, Geissler, W M, Anderson, S, Sex Hormones and Antihormones in Endocrine Dependent Pathology: Basic and Clinical Aspects, M. Motta and M. Serio, eds., Elsevier Science 1994). […] Enzyme concentrations were determined by titration with finasteride, or [^3 H]finasteridem, or from catalytic activity using kcat and Km values. […]

In test [5] the target is T1, type 2 5α-reductase. Kind of test: Kinetic constants of baculovirus-expressed type 2 5α-reductase under the standard assay conditions. The format is biochemical.
From the text: Ethanol is included at 1% final concentration as the vehicle for introduction of inhibitors. […] A unit of enzyme activity was defined as 1 pmol product/min, and is equal to 444 fmol enzyme under these conditions.
When tissue extracts are the source of enzyme, the quenched reactions are clarified by centrifugation at 10,000×g before analysis.
The molecular weight was taken to be about 30,000 in estimating enzyme purity.
Test [6] has as its system native human prostate enzyme. To be noted: read-out: Km (Faller et al.), neutral pH; cited from earlier work.

Regarding `CC(C)(C)NC(=O)[C@H]1CC[C@H]2[C@@H]3CC[C@H]4NC(=O)C=C[C@]4(C)[C@H]3CC[C@]12C` [finasteride, 17β-(N-tert-butylcarbamoyl)-3-oxo-4-aza-5α-androst-1-ene-3-one], the “inhibition of human skin (type 1) isozyme at clinical doses, in words” value in test [1] (at doses employed in the treatment of BPH) is “not a significant inhibitor”. In addition, the “sensitivity of type 1 isozyme, in words” value in test [1] (sebaceous glands of most regions of skin tissue) is listed as “relatively insensitive”. Also, the “type 1 rate constant as percent of the rate constant against the prostate isozyme” value in test [1] (type 1 vs type 2) is listed as “about 1%”. Also, the “time required for dihydrotestosterone to return to basal levels after withdrawal” value in test [2] is given as “as long as two weeks”. In addition, the “rate constant of binding to the human prostate isozyme” value in test [3] (Faller et al., slow-binding) was 270000 M⁻¹ s⁻¹. Further, the “inhibition type, human prostate (type 2) isozyme” value in test [3] (Harris et al.) is “slow-binding inhibitors”. Besides, in test [3] (predominates in the prostate), the “inhibition of type 2 isozyme, in words” value was “potently inhibited”.

For `CCN(CC)C(=O)[C@H]1CC[C@H]2[C@@H]3CC[C@H]4OC(=O)C=C[C@]4(C)[C@H]3CC[C@]12C` [L-682,299, 17β-(N-diethyl)carbamoyl-4-oxa-5α-androst-1-en-3-one], the velocity at infinite-time entry in test [4] was “essentially zero”. Further, in test [4] (inhibition developed slowly with time), the “inhibition of the enzyme at infinite time” value is “total inhibition”.

Usually Km stands for the concentration of substrate that gives half-maximal velocity. Consider `C[C@]12CC[C@H]3[C@@H](CCC4=CC(=O)CC[C@@]43C)[C@@H]1CC[C@@H]2O` [testosterone], for which the Km was 0.0246 ± 0.0007 µM in test [5] (baculovirus-expressed type 2, pH 7.2, 37° C., read-out: Km for testosterone) and 0.02 ± 0.003 µM in test [6]. This molecule yielded a turnover number kcat in test [5] (type 2, pH 7.2, 37° C., by titration with finasteride) of 0.075 ± 0.006 s⁻¹.
